Measured values taken from article PMC10638401, “Mannich-type modifications of (−)-cannabidiol and (−)-cannabigerol leading to new, bioactive derivatives” (Scientific Reports, 2023).
≈ marks a conversion by molar mass, not a printed value. Like-named read-outs stand apart in the source and are kept apart here.

Legend:
A2780 cells = assay: Antiproliferative MTT assay, 72 h; format: cell-based, human; conditions: for antiproliferative activity (in words): A2780, 10 and 30 μM
Description: (§1) Human adherent cancer cell lines A2780, MDA-MB-231 and MCF-7 were obtained from ECACC (European Collection of Cell Cultures, Salisbury, UK; Cat. No.93112519, 92020424, 86012803, respectively). SiHa cell line was obtained from ATCC (American Tissue Culture Collection, Manassas, Virginia, USA; Cat. No. HTB-35). All cell lines used for antiproliferative assay were maintained in Eagle's Minimum Essential Medium (EMEM) completed with 10% fetal bovine serum (FBS), 1% non-essential amino acid solution, and 1% penicillin, streptomycin, and amphotericin B mixture under cell culture conditions described before. All the utilized media and supplements were purchased from Lonza Group Ltd. (Basel, Switzerland).
(§2) The antiproliferative actions of the prepared molecules were determined by the same assay against a panel of adherent human cancer cell lines containing cervical (SiHa), ovarian (A2780) and breast (MCF7, MDA-MB-231) cell lines. Cells were plated onto 96-well microplates (5000 cells/well) and after an overnight incubation treated with two concentrations (10 or 30 μM) of the test substances for 72 h under cell culture conditions. Subsequently, MTT (5 mg/ml in phosphate buffer) was added to the wells, followed by incubation for 4 h. The supernatant was removed, the formazan crystals were then dissolved in 100 µl DMSO. Finally, absorbance values were determined by a microplate reader (BMG Labtech, Ortenberg, Germany) at 545 nm. Two independent measurements were performed with five parallel wells. Results were expressed as percentage of cell proliferation inhibition compared to non-treated control samples regarded as 0%.

MCF7 cells = assay: Antiproliferative MTT assay, 72 h; format: cell-based, human; conditions: for antiproliferative activity (in words): MCF7, 10 and 30 μM; for inhibition of the proliferation: MCF7, 30 μM
Description: as §1, §2

MDA-MB-231 cells = assay: Antiproliferative MTT assay, 72 h; format: cell-based, human; conditions: for antiproliferative activity (in words): MDA-MB-231, 10 and 30 μM
Description: as §1, §2

SiHa cells = assay: Antiproliferative MTT assay, 72 h; format: cell-based, human; conditions: for antiproliferative activity (in words): 10 and 30 μM
Description: as §1, §2

SARS-CoV-2 [1] = assay: SARS-CoV-2 cytopathic effect (CPE) inhibition assay in Vero E6 cells (XTT); format: cell-based; conditions: for EC50: Severe acute respiratory syndrome coronavirus 2, Vero C1008, 72 h, Vero E6 cells, 3 days post-infection, XTT; for IC50: Severe acute respiratory syndrome coronavirus 2, Vero C1008, read-out: IC50 (anti-SARS-CoV-2 activity, Figure 8)
Experimental: (§3) CBD and CBG derivatives were further tested for their ability to inhibit SARS-CoV-2 replication in Vero E6 cells. Initially, the inhibition of virus-induced cytopathic effect was measured by addition of twofold serial dilutions of each derivative to the cells, followed by the infection with SARS-CoV-2 and determination of the cell viability 3 days post-infection by XTT assay. Concurrently, the cytotoxicity of each compound was assessed from identical dilutions in uninfected Vero E6 cells. To confirm anti-SARS-CoV-2 activity in the CPE inhibition assay, selected compounds were tested in immunofluorescence assay, where inhibition of SARS-CoV-2 replication was monitored as reduction in nucleoprotein expression using fluorescence microscope. […] Among the CBG derivatives, we can find quite cytotoxic and non-cytotoxic derivatives as well.
(§4) For CPE-based assay, two-fold fold serial dilutions of compounds from 100 µM were added in triplicate in a 384-well plate with 5000 Vero E6 cells in DMEM medium with 2% FBS, 100 U of penicillin/ml and 100 µg of streptomycin/ml (all Merck). After 1 h incubation SARS-CoV-2 (strain hCoV-19/Czech Republic/NRL_6632_2/2020) was added at multiplicity of infection […]. Following three days incubation at 37 °C in 5% CO2 the cell viability was determined by addition of XTT solution (Sigma-Aldrich) for 4 h and the absorbance was measured using EnVision plate reader (Perkin Elmer). Drug concentrations required to reduce viral cytopathic effect by 50% (EC50) were calculated using nonlinear regression from plots of percentage cell viability versus log10 drug concentration using GraphPad Prism (version 9.0.0, GraphPad Software, LLC). For immunofluorescence assay, two-fold fold serial dilutions of compounds from 100 µM were added in triplicate in 96-well plate with 15,000 Vero E6 cells plated day before in the same medium as above. After 1 h incubation, SARS-CoV-2 was added at multiplicity of infection 0.05 IU/cell. After three days of incubation, cells were fixed with 4% paraformaldehyde, permeabilized with 0.2% Triton X100 (both Merck), washed, incubated with anti-SARS-CoV-2antibody (mouse monoclonal antibody detecting SARS-CoV-2 nucleoprotein) for 2 h at room temperature. Followed by 1.5 h incubation with Cy3-labeled donkey anti-mouse IgG (Jackson ImmunoResearch Europe) and documented using fluorescence microscope with camera (Olympus). Images were processed in ImageJ software (NIH) and compound concentrations required to reduce fluorescence by 50% (EC50s) were calculated from plots of percentage of fluorescent cells versus log10 drug concentration using nonlinear regression analysis as above. Cytotoxicity was evaluated by incubating with the same two-fold serial dilutions of each compound as above with Vero E6 cells in 384-well plate.

SARS-CoV-2 [2] = assay: SARS-CoV-2 immunofluorescence assay (nucleoprotein expression) in Vero E6 cells; format: cell-based; conditions: Severe acute respiratory syndrome coronavirus 2, Vero C1008, 72 h, three days
Experimental: as §3, §4

in vitro = conditions: African green monkey
Bacillus subtilis = assay: MIC, broth micro dilution
Experimental: (§5) According to CLSI guideline the Minimal Inhibitory Concentrations (MICs) of the prepared compounds were determined with the broth micro dilution method. After an overnight growth on 5% bovine blood agar plates at 35 °C bacterial strains were suspended in physiological saline in order to reach the density of 0.5 McFarland for inoculation. Stock solutions containing different concentrations of the substances were prepared in DMSO and H2O (1:1). These were twofold serially diluted from 256 to 0.5 mg/l in Mueller–Hinton broth, and 100 ml of each dilution was inoculated with 10 ml of each bacterial suspension.

[3] = test system: MSSA (Methicillin Sensitive Staphylococcus aureus); assay: MIC, broth micro dilution
Experimental: as §5

[4] = test system: MRSA (Methicillin Resistant Staphylococcus aureus); assay: MIC, broth micro dilution
[5] = test system: Staphylococcus epidermidis biofilm forming; assay: MIC, broth micro dilution
Experimental: as §5

[6] = test system: Staphylococcus epidermidis mecA; assay: MIC, broth micro dilution
[7] = test system: Enterococcus faecalis 29 212; assay: MIC, broth micro dilution
[8] = test system: Enterococcus faecalis 15 376 VanA; assay: MIC, broth micro dilution
Experimental: as §5

[9] = test system: Enterococcus faecalis 51299 VanB; assay: MIC, broth micro dilution
Experimental: as §5

[10] = Enterococcus faecalis, 15376VANA
[11] = Enterococcus faecalis, 51299VANB

## CCCCCc1c2c(c(C/C=C(\C)CCC=C(C)C)c3c1CN(Cc1ccccc1)CO3)OCN(Cc1ccccc1)C2 [Compound 17b]
A2780 cells
  antiproliferative activity (in words): ineffectiveness
MCF7 cells
  antiproliferative activity (in words): ineffectiveness
MDA-MB-231 cells
  antiproliferative activity (in words): ineffectiveness
SiHa cells
  antiproliferative activity (in words): ineffectiveness

## CCC(CC)COC(=O)[C@H](C)N[P@](=O)(OC[C@H]1O[C@@](C#N)(c2ccc3c(N)ncnn23)[C@H](O)[C@@H]1O)Oc1ccccc1 [Remdesivir, reference compound]
SARS-CoV-2 [1]
  EC50: 2.8 ± 0.18 µM
SARS-CoV-2 [2]
  EC50: 1.2 ± 0.03 µM
In vitro
  CC50: > 100 µM

## CCCCCc1cc(O)c(C/C=C(\C)CCC=C(C)C)c2c1CN(CCCC(=O)O)CO2 [Compound 20]
SARS-CoV-2 [1]
  EC50: > 100 µM
  IC50: > 100 µM
In vitro
  CC50: > 100 µM
Bacillus subtilis
  MIC: > 256 µg/mL
[3]; Staphylococcus aureus
  MIC: > 256 µg/mL
[4]; Staphylococcus aureus
  MIC: > 256 µg/mL
[5]; Staphylococcus epidermidis
  MIC: > 256 µg/mL
[6]; Staphylococcus epidermidis
  MIC: > 256 µg/mL
[7]; Enterococcus faecalis, 29212
  MIC: 64 µg/mL (≈ 144 µM)
[8]; [10]
  MIC: 128 µg/mL (≈ 289 µM)
[9]; [11]
  MIC: 128 µg/mL (≈ 289 µM)

## CCCCCc1cc(O)c(C/C=C(\C)CCC=C(C)C)c2c1CN(Cc1ccccc1)CO2 [Compound 17a]
SARS-CoV-2 [1]
  EC50: > 100 µM
  IC50: > 100 µM
In vitro
  CC50: > 100 µM
Bacillus subtilis
  MIC: > 256 µg/mL
[3]; Staphylococcus aureus
  MIC: > 256 µg/mL
[4]; Staphylococcus aureus
  MIC: > 256 µg/mL
[5]; Staphylococcus epidermidis
  MIC: > 256 µg/mL
[6]; Staphylococcus epidermidis
  MIC: > 256 µg/mL
[7]; Enterococcus faecalis, 29212
  MIC: 64 µg/mL (≈ 143 µM)
[8]; [10]
  MIC: > 256 µg/mL
[9]; [11]
  MIC: 64 µg/mL (≈ 143 µM)

## C=C(C)[C@@H]1CCC(C)=C[C@H]1c1c(O)cc(CCCCC)c2c1OCN(CCCC)C2.Cl [Compound 8s]
A2780 cells
  antiproliferative activity (in words): no significant difference was detected
MCF7 cells
  antiproliferative activity (in words): no significant difference was detected
MDA-MB-231 cells
  antiproliferative activity (in words): no significant difference was detected
SiHa cells
  antiproliferative activity (in words): no significant difference was detected
Bacillus subtilis
  MIC: 128 µg/mL
[3]
  MIC: 128 µg/mL
[4]
  MIC: 128 µg/mL
[5]; Staphylococcus epidermidis biofilm forming
  MIC: 128 µg/mL
[6]; Staphylococcus epidermidis mecA
  MIC: 128 µg/mL
[7]; Enterococcus faecalis 29 212
  MIC: 2 µg/mL
[8]; Enterococcus faecalis 15 376 VanA
  MIC: 128 µg/mL
[9]; Enterococcus faecalis 51299 VanB
  MIC: 2 µg/mL

## C=C(C)[C@@H]1CCC(C)=C[C@H]1c1c(O)cc(CCCCC)c2c1OCN(CCCC(=O)O)C2 [Compound 12]
A2780 cells
  antiproliferative activity (in words): None of the other tested CBD analogs (9, 11, and 12) exhibited substantial antiproliferative activity
MCF7 cells
  antiproliferative activity (in words): None of the other tested CBD analogs (9, 11, and 12) exhibited substantial antiproliferative activity
MDA-MB-231 cells
  antiproliferative activity (in words): None of the other tested CBD analogs (9, 11, and 12) exhibited substantial antiproliferative activity
SiHa cells
  antiproliferative activity (in words): None of the other tested CBD analogs (9, 11, and 12) exhibited substantial antiproliferative activity
SARS-CoV-2 [1]
  EC50: 11 ± 1.2 µM
  IC50: 11 µM
SARS-CoV-2 [2]
  EC50: 39 ± 1.4 µM
In vitro
  CC50: ~56 µM
Bacillus subtilis
  MIC: > 256 µg/mL
[3]; Staphylococcus aureus
  MIC: > 256 µg/mL
[4]; Staphylococcus aureus
  MIC: > 256 µg/mL
[5]; Staphylococcus epidermidis
  MIC: > 256 µg/mL
[6]; Staphylococcus epidermidis
  MIC: > 256 µg/mL
[7]; Enterococcus faecalis, 29212
  MIC: > 256 µg/mL
[8]; [10]
  MIC: > 256 µg/mL
[9]; [11]
  MIC: > 256 µg/mL

## C=CCN1COc2c(c(CCCCC)c3c(c2C/C=C(\C)CCC=C(C)C)OCN(CC=C)C3)C1 [Compound 19b]
A2780 cells
  antiproliferative activity (in words): more active than CBG
MCF7 cells
  antiproliferative activity (in words): more active than CBG
MDA-MB-231 cells
  antiproliferative activity (in words): more active than CBG
SiHa cells
  antiproliferative activity (in words): more active than CBG

## C=C(C)[C@@H]1CCC(C)=C[C@H]1c1c(O)c(CN(CC)CC)c(CCCCC)c(CN(CC)CC)c1O [Compound 13]
A2780 cells; A2780, 10 μM
  inhibition of the proliferation (in words): no relevant action
A2780 cells; A2780, 30 μM
  inhibition of the proliferation: similarly effective than CBD
MCF7 cells; MCF7, 10 μM
  inhibition of the proliferation (in words): no relevant action
MCF7 cells
  inhibition of the proliferation: similarly effective than CBD
MDA-MB-231 cells; MDA-MB-231, 10 μM
  inhibition of the proliferation (in words): no relevant action
MDA-MB-231 cells; MDA-MB-231, 30 μM
  inhibition of the proliferation: similarly effective than CBD
SiHa cells; 10 μM
  inhibition of the proliferation (in words): no relevant action
SiHa cells; 30 μM
  inhibition of the proliferation: similarly effective than CBD
SARS-CoV-2 [1]
  EC50: > 12 µM
  IC50: > 12 µM
In vitro
  CC50: 12 ± 0.28 µM
Bacillus subtilis
  MIC: > 256 µg/mL
[3]; Staphylococcus aureus
  MIC: > 256 µg/mL
[4]; Staphylococcus aureus
  MIC: > 256 µg/mL
[5]; Staphylococcus epidermidis
  MIC: > 256 µg/mL
[6]; Staphylococcus epidermidis
  MIC: > 256 µg/mL
[7]; Enterococcus faecalis, 29212
  MIC: > 256 µg/mL
[8]; [10]
  MIC: > 256 µg/mL
[9]; [11]
  MIC: > 256 µg/mL

## C=C(C)[C@@H]1CCC(C)=C[C@H]1c1c(O)cc(CCCCC)c2c1OCN(Cc1ccccc1)C2 [Compound 10]
MCF7 cells
  inhibition of the proliferation: considerable growth inhibition
SARS-CoV-2 [1]
  EC50: 9 ± 0.51 µM
  IC50: 9 µM
SARS-CoV-2 [2]
  EC50: ~42 µM
In vitro
  CC50: > 100 µM
Bacillus subtilis
  MIC: > 256 µg/mL
[3]; Staphylococcus aureus
  MIC: > 256 µg/mL
[4]; Staphylococcus aureus
  MIC: > 256 µg/mL
[5]; Staphylococcus epidermidis
  MIC: > 256 µg/mL
[6]; Staphylococcus epidermidis
  MIC: > 256 µg/mL
[7]; Enterococcus faecalis, 29212
  MIC: > 256 µg/mL
[8]; [10]
  MIC: > 256 µg/mL
[9]; [11]
  MIC: > 256 µg/mL
